# In patent publication US10695337B2, “Piperidin-4-yl azetidine derivatives as JAK1 inhibitors” (Incyte Corporation, priority 2010, dated 2020):
# Molecular target: human JAK1 (a.a. 837-1142)
# Assay: In vitro JAK kinase assay (HTRF, phosphorylation of a biotinylated peptide), JAK1
# Assay type: biochemical
# Details: measured at 1 mM ATP; JAK2 IC50 / JAK1 IC50
# Summary of the method: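 Phosphorylation of a biotinylated peptide by purified His-tagged JAK catalytic domains (insect-cell baculovirus expression) ran 1 hr at room temperature. After stopping with EDTA, Eu-Py20 and SA-APC were bound for 40 minutes and HTRF measured.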
row,Compound,IC50 Ratio JAK2/JAK1
1,"N#CCC1(n2cc(-c3ncnc4[nH]ccc34)cn2)CN(C2CCN(Cc3cc4ccccc4o3)CC2)C1 [Example 232, {1-[1-(1-benzofuran-2-ylmethyl)piperidin-4-yl]-3-[4-(7H-pyrrolo[2,3-d]pyrimidin-4-yl)-1H-pyrazol-1-yl]azetidin-3-yl}acetonitrile]",0.7
2,"N#CCC1(n2cc(-c3ncnc4[nH]ccc34)cn2)CN(C2CCN(Cc3cccc(Oc4ccccc4)c3)CC2)C1 [Example 233, {1-[1-(3-phenoxybenzyl)piperidin-4-yl]-3-[4-(7H-pyrrolo[2,3-d]pyrimidin-4-yl)-1H-pyrazol-1-yl]azetidin-3-yl}acetonitrile]",2.2
3,"N#CCC1(n2cc(-c3ncnc4[nH]ccc34)cn2)CN(C2CCN(Cc3ccc4c(c3)OCCO4)CC2)C1 [Example 234, {1-[1-(2,3-dihydro-1,4-benzodioxin-6-ylmethyl)piperidin-4-yl]-3-[4-(7H-pyrrolo[2,3-d]pyrimidin-4-yl)-1H-pyrazol-1-yl]azetidin-3-yl}acetonitrile]",4.2
4,"N#CCC1(n2cc(-c3ncnc4[nH]ccc34)cn2)CN(C2CCN(Cc3c(C(F)(F)F)ccc(Cl)c3F)CC2)C1 [Example 236, {1-{1-[3-chloro-2-fluoro-6-(trifluoromethyl)benzyl]piperidin-4-yl}-3-[4-(7H-pyrrolo[2,3-d]pyrimidin-4-yl)-1H-pyrazol-1-yl]azetidin-3-yl}acetonitrile]",5.5
5,"N#CCC1(n2cc(-c3ncnc4[nH]ccc34)cn2)CN(C2CCN(Cc3c(Cl)cncc3Cl)CC2)C1 [Example 237, {1-{1-[(3,5-dichloropyridin-4-yl)methyl]piperidin-4-yl}-3-[4-(7H-pyrrolo[2,3-d]pyrimidin-4-yl)-1H-pyrazol-1-yl]azetidin-3-yl}acetonitrile]",2.3
6,"COc1ccc2nc(Cl)c(CN3CCC(N4CC(CC#N)(n5cc(-c6ncnc7[nH]ccc67)cn5)C4)CC3)cc2c1 [Example 238, {1-{1-[(2-chloro-6-methoxyquinolin-3-yl)methyl]piperidin-4-yl}-3-[4-(7H-pyrrolo[2,3-d]pyrimidin-4-yl)-1H-pyrazol-1-yl]azetidin-3-yl}acetonitrile]",6.8
7,"COc1ccc(CN2CCC(N3CC(CC#N)(n4cc(-c5ncnc6[nH]ccc56)cn4)C3)CC2)c(Cl)c1OC [Example 239, {1-[1-(2-chloro-3,4-dimethoxybenzyl)piperidin-4-yl]-3-[4-(7H-pyrrolo[2,3-d]pyrimidin-4-yl)-1H-pyrazol-1-yl]azetidin-3-yl}acetonitrile]",2.3
8,"N#CCC1(n2cc(-c3ncnc4[nH]ccc34)cn2)CN(C2CC3CCC(C2)N3Cc2c(F)ccc(F)c2Cl)C1 (stereo not shown) [Example 241, {1-[8-(2-Chloro-3,6-difluorobenzyl)-8-azabicyclo[3.2.1]oct-3-yl]-3-[4-(7H-pyrrolo[2,3-d]pyrimidin-4-yl)-1H-pyrazol-1-yl]azetidin-3-yl}acetonitrile]",3.8
9,"CC1CC(N2CC(CC#N)(n3cc(-c4ncnc5[nH]ccc45)cn3)C2)CCN1Cc1c(F)cccc1Cl (stereo not shown) [Example 245, {1-[1-(2-chloro-6-fluorobenzyl)-2-methylpiperidin-4-yl]-3-[4-(7H-pyrrolo[2,3-d]pyrimidin-4-yl)-1H-pyrazol-1-yl]azetidin-3-yl}acetonitrile]",1.5
10,"Cn1nccc1S(=O)(=O)N1CCC(N2CC(CC#N)(n3cc(-c4ncnc5[nH]ccc45)cn3)C2)CC1 [Example 246, {1-{1-[(1-Methyl-1H-pyrazol-5-yl)sulfonyl]piperidin-4-yl}-3-[4-(7H-pyrrolo[2,3-d]pyrimidin-4-yl)-1H-pyrazol-1-yl]azetidin-3-yl}acetonitrile]",7.5
11,"N#CCC1(n2cc(-c3ncnc4[nH]ccc34)cn2)CN(C2CCN(S(=O)(=O)c3ccccc3C#N)CC2)C1 [Example 247, 2-[(4-{3-(cyanomethyl)-3-[4-(7H-pyrrolo[2,3-d]pyrimidin-4-yl)-1H-pyrazol-1-yl]azetidin-1-yl}piperidin-1-yl)sulfonyl]benzonitrile]",5.1
12,"N#CCC1(n2cc(-c3ncnc4[nH]ccc34)cn2)CN(C2CCN(S(=O)(=O)c3cccc(C#N)c3)CC2)C1 [Example 248, 3-[(4-{3-(cyanomethyl)-3-[4-(7H-pyrrolo[2,3-d]pyrimidin-4-yl)-1H-pyrazol-1-yl]azetidin-1-yl}piperidin-1-yl)sulfonyl]benzonitrile]",5.2
13,"N#CCC1(n2cc(-c3ncnc4[nH]ccc34)cn2)CN(C2CCN(S(=O)(=O)c3ccc(C#N)cc3)CC2)C1 [Example 249, 4-[(4-{3-(cyanomethyl)-3-[4-(7H-pyrrolo[2,3-d]pyrimidin-4-yl)-1H-pyrazol-1-yl]azetidin-1-yl}piperidin-1-yl)sulfonyl]benzonitrile]",2.1
14,"CN(C)c1ccc(S(=O)(=O)N2CCC(N3CC(CC#N)(n4cc(-c5ncnc6[nH]ccc56)cn4)C3)CC2)cc1C#N [Example 250, 5-[(4-{3-(cyanomethyl)-3-[4-(7H-pyrrolo[2,3-d]pyrimidin-4-yl)-1H-pyrazol-1-yl]azetidin-1-yl}piperidin-1-yl)sulfonyl]-2-(dimethylamino)benzonitrile]",4.7
15,"Cn1ccc(S(=O)(=O)N2CCC(N3CC(CC#N)(n4cc(-c5ncnc6[nH]ccc56)cn4)C3)CC2)n1 [Example 251, {1-{1-[(1-methyl-1H-pyrazol-3-yl)sulfonyl]piperidin-4-yl}-3-[4-(7H-pyrrolo[2,3-d]pyrimidin-4-yl)-1H-pyrazol-1-yl]azetidin-3-yl}acetonitrile]",4.9
16,"N#CCC1(n2cc(-c3ncnc4[nH]ccc34)cn2)CN(C2CCN(S(=O)(=O)C3CCCC3)CC2)C1 [Example 253, {1-[1-(cyclopentylsulfonyl)piperidin-4-yl]-3-[4-(7H-pyrrolo[2,3-d]pyrimidin-4-yl)-1H-pyrazol-1-yl]azetidin-3-yl}acetonitrile]",5.8
17,"Cn1cnc(S(=O)(=O)N2CCC(N3CC(CC#N)(n4cc(-c5ncnc6[nH]ccc56)cn4)C3)CC2)c1 [Example 258, {1-{1-[(1-methyl-1H-imidazol-4-yl)sulfonyl]piperidin-4-yl}-3-[4-(7H-pyrrolo[2,3-d]pyrimidin-4-yl)-1H-pyrazol-1-yl]azetidin-3-yl}acetonitrile]",5.0
18,"Cc1nc(S(=O)(=O)N2CCC(N3CC(CC#N)(n4cc(-c5ncnc6[nH]ccc56)cn4)C3)CC2)cn1C [Example 259, {1-{1-[(1,2-dimethyl-1H-imidazol-4-yl)sulfonyl]piperidin-4-yl}-3-[4-(7H-pyrrolo[2,3-d]pyrimidin-4-yl)-1H-pyrazol-1-yl]azetidin-3-yl}acetonitrile]",4.6
19,"Cc1noc(C)c1S(=O)(=O)N1CCC(N2CC(CC#N)(n3cc(-c4ncnc5[nH]ccc45)cn3)C2)CC1 [Example 260, {1-{1-[(3,5-dimethylisoxazol-4-yl)sulfonyl]piperidin-4-yl}-3-[4-(7H-pyrrolo[2,3-d]pyrimidin-4-yl)-1H-pyrazol-1-yl]azetidin-3-yl}acetonitrile]",7.1
20,"N#CCC1(n2ccc(-c3ncnc4[nH]ccc34)c2)CN(C2CCN(C(=O)c3cccc(C#N)c3)CC2)C1 [Example 262, 3-[(4-{3-(cyanomethyl)-3-[3-(7H-pyrrolo[2,3-d]pyrimidin-4-yl)-1H-pyrrol-1-yl]azetidin-1-yl}piperidin-1-yl)carbonyl]benzonitrile]",7.4
21,"N#CCC1(n2ccc(-c3ncnc4[nH]ccc34)c2)CN(C2CCN(C(=O)c3ccc(C#N)cc3F)CC2)C1 [Example 264, 4-[(4-{3-(cyanomethyl)-3-[3-(7H-pyrrolo[2,3-d]pyrimidin-4-yl)-1H-pyrrol-1-yl]azetidin-1-yl}piperidin-1-yl)carbonyl]-3-fluorobenzonitrile]",9.5
22,"N#CCC1(n2ccc(-c3ncnc4[nH]ccc34)c2)CN(C2CCN(C(=O)c3c(F)cc(C#N)cc3F)CC2)C1 [Example 265, 4-[(4-{3-(cyanomethyl)-3-[3-(7H-pyrrolo[2,3-d]pyrimidin-4-yl)-1H-pyrrol-1-yl]azetidin-1-yl}piperidin-1-yl)carbonyl]-3,5-difluorobenzonitrile]",6.6
23,"N#CCC1(n2ccc(-c3ncnc4[nH]ccc34)c2)CN(C2CCN(C(=O)c3cc(F)ccc3C(F)(F)F)CC2)C1 [Example 266, {1-{1-[5-fluoro-2-(trifluoromethyl)benzoyl]piperidin-4-yl}-3-[3-(7H-pyrrolo[2,3-d]pyrimidin-4-yl)-1H-pyrrol-1-yl]azetidin-3-yl}acetonitrile]",6.6
24,"N#CCC1(n2ccc(-c3ncnc4[nH]ccc34)c2)CN(C2CCN(C(=O)c3ccc(C(F)(F)F)c(F)c3)CC2)C1 [Example 267, {1-{1-[3-fluoro-4-(trifluoromethyl)benzoyl]piperidin-4-yl}-3-[3-(7H-pyrrolo[2,3-d]pyrimidin-4-yl)-1H-pyrrol-1-yl]azetidin-3-yl}acetonitrile]",6.6
25,"N#CCC1(n2ccc(-c3ncnc4[nH]ccc34)c2)CN(C2CCN(C(=O)c3cccc(C(F)(F)F)c3)CC2)C1 [Example 268, (3-[3-(7H-pyrrolo[2,3-d]pyrimidin-4-yl)-1H-pyrrol-1-yl]-1-{1-[3-(trifluoromethyl)benzoyl]piperidin-4-yl}azetidin-3-yl)acetonitrile]",3.1
26,N#CCC1(n2ccc(-c3ncnc4[nH]ccc34)c2)CN(C2CCN(C(=O)c3cc(OC(F)(F)F)ccc3F)CC2)C1 [Example 269],5.0
27,"N#CCC1(n2ccc(-c3ncnc4[nH]ccc34)c2)CN(C2CCN(C(=O)c3c(F)ccc(F)c3F)CC2)C1 [Example 270, {3-[3-(7H-pyrrolo[2,3-d]pyrimidin-4-yl)-1H-pyrrol-1-yl]-1-[1-(2,3,6-trifluorobenzoyl)piperidin-4-yl]azetidin-3-yl}acetonitrile]",6.1
28,"N#CCC1(n2ccc(-c3ncnc4[nH]ccc34)c2)CN(C2CCN(C(=O)c3cccs3)CC2)C1 [Example 271, {3-[3-(7H-pyrrolo[2,3-d]pyrimidin-4-yl)-1H-pyrrol-1-yl]-1-[1-(2-thienylcarbonyl)piperidin-4-yl]azetidin-3-yl}acetonitrile]",7.8
